Measurements published in the supplement of paper PMC10307832.

Columns and labels:
Assay in all cases: relative viability (nuclei count vs DMSO), 5 days (fraction); higher = more cells survive
GSK126 + Lapatinib = compound: CC[C@H](C)N1C=C(C2=C(C=C(C=C21)C3=CN=C(C=C3)N4CCNCC4)C(=O)NCC5=C(C=C(NC5=O)C)C)C [GSK126] + CS(=O)(=O)CCNCc1ccc(-c2ccc3ncnc(Nc4ccc(OCc5cccc(F)c5)c(Cl)c4)c3c2)o1 [Lapatinib] (partner 2 µM)
Method in brief: (§1)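 The day after seeding in 1536-well plates, lung cancer cell lines were treated by pin tool with a single drug, or with a fixed anchor-drug dose together with five library-drug doses (not always all listed) in √10 steps. After 5 days, a combined fix-and-stain solution (final 0.05% Triton X-100, 1% formaldehyde, 1 ug/ml Hoechst) was added. Nuclei counted on 4× images gave relative viability as treated counts over vehicle counts, reported as the median of duplicate plates.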

MLN4924 + Phenformin = compound: NS(=O)(=O)OC[C@@H]1C[C@@H](n2ccc3c(N[C@H]4CCc5ccccc54)ncnc32)C[C@@H]1O [MLN4924] + N=C(N)NC(=N)NCCc1ccccc1 [Phenformin] (partner 250 µM)
Method in brief: as §1

MLN4924 + Olaparib = compound: NS(=O)(=O)OC[C@@H]1C[C@@H](n2ccc3c(N[C@H]4CCc5ccccc54)ncnc32)C[C@@H]1O [MLN4924] + O=C(c1cc(Cc2n[nH]c(=O)c3ccccc23)ccc1F)N1CCN(C(=O)C2CC2)CC1 [Olaparib] (partner 8 µM)
Method in brief: as §1

Carboplatin + Phenformin = compound: C1CC(C1)(C(=O)O)C(=O)O.[NH2-].[NH2-].[Pt+2] [Carboplatin] + N=C(N)NC(=N)NCCc1ccccc1 [Phenformin] (partner 250 µM)
Method in brief: as §1

Cell Line	relative viability (GSK126 + Lapatinib; first compound 0.08 µM)	relative viability (GSK126 + Lapatinib; first compound 0.253 µM)	relative viability (GSK126 + Lapatinib; first compound 0.8 µM)	relative viability (GSK126 + Lapatinib; first compound 2.53 µM)	relative viability (GSK126 + Lapatinib; first compound 8 µM)	relative viability (MLN4924 + Phenformin; first compound 0.04 µM)	relative viability (MLN4924 + Phenformin; first compound 0.1265 µM)	relative viability (MLN4924 + Phenformin; first compound 0.4 µM)	relative viability (MLN4924 + Phenformin; first compound 1.265 µM)	relative viability (MLN4924 + Phenformin; first compound 4 µM)	relative viability (MLN4924 + Olaparib; first compound 0.04 µM)	relative viability (MLN4924 + Olaparib; first compound 0.1265 µM)	relative viability (MLN4924 + Olaparib; first compound 0.4 µM)	relative viability (MLN4924 + Olaparib; first compound 1.265 µM)	relative viability (MLN4924 + Olaparib; first compound 4 µM)	relative viability (Carboplatin + Phenformin; first compound 0.08 µM)	relative viability (Carboplatin + Phenformin; first compound 0.253 µM)	relative viability (Carboplatin + Phenformin; first compound 0.8 µM)	relative viability (Carboplatin + Phenformin; first compound 2.53 µM)	relative viability (Carboplatin + Phenformin; first compound 8 µM)
LK-2	0.947	0.952	0.876	0.916	0.673	0.312	0.31	0.262	0.167	0.173	0.4	0.312	0.234	0.151	0.137	0.683	0.47	0.343	0.398	0.563
LOU-NH91	0.812	0.77	0.755	0.882	0.871	0.6	0.853	0.763	0.467	0.425	0.887	0.844	0.724	0.47	0.48	0.871	0.646	0.714	0.708	0.675
LU99A	1.07	1	0.913	1	0.99	0.477	0.622	0.437	0.196	0.213	0.18	0.136	0.16	0.108	0.0968	0.958	0.854	0.738	0.809	0.647
LXF-289	0.92	0.84	0.894	0.885	0.881	0.491	0.41	0.293	0.163	0.121	0.919	0.429	0.381	0.132	0.0927	0.566	0.584	0.519	0.539	0.502
NCI-H23	1.26	1.02	1.02	1.22	1.2	0.764	0.8	0.406	0.341	0.233	0.343	0.245	0.239	0.143	0.131	0.824	0.753	0.768	0.727	0.714
NCI-H322M	0.616	0.638	0.604	0.654	0.66	0.908	0.65	0.473	0.248	0.306	0.708	0.511	0.498	0.372	0.427	0.884	0.738	0.775	0.74	0.712
NCI-H358	0.487	0.461	0.525	0.454	0.51	0.354	0.366	0.171	0.0905	0.0916	0.537	0.494	0.312	0.0861	0.105	0.426	0.418	0.395	0.431	0.334
NCI-H460	0.971	1.03	0.879	1.14	1.1	0.548	0.448	0.496	0.0336	0.0252	0.395	0.372	0.427	0.0925	0.0401	0.548	0.507	0.504	0.404	0.122
NCI-H520	1.09	0.713	0.722	0.898	0.922	0.566	0.439	0.429	0.265	0.238	0.273	0.217	0.24	0.151	0.167	0.677	0.595	0.725	0.585	0.54
NCI-H596	1.11	0.932	0.951	1.11	1.08	0.751	0.914	–	0.835	0.763	0.815	0.626	0.436	0.595	0.557	0.871	0.767	0.768	0.638	0.67
NCI-H647	1.22	1.01	0.927	1.11	0.865	0.367	0.348	0.118	0.0487	0.0541	0.392	0.125	0.0492	0.0302	0.0464	0.555	0.66	0.422	0.55	0.452
NCI-H650	0.833	0.838	0.97	0.978	0.955	0.355	0.287	0.224	0.197	0.199	0.244	0.159	0.17	0.137	0.129	0.495	0.451	0.398	0.428	0.398
NCI-H661	0.417	0.574	0.441	0.572	0.361	0.289	0.329	0.294	0.286	0.234	0.614	0.575	0.39	0.31	0.372	0.249	0.286	0.259	0.276	0.301
NCI-H727	0.746	0.81	0.984	0.884	1.06	0.827	0.438	0.278	0.292	0.33	0.599	0.422	0.559	0.369	0.481	0.504	0.652	0.454	0.497	0.365
NCI-H838	1.12	0.938	0.882	0.865	0.906	0.538	0.319	0.263	0.127	0.128	0.434	0.243	0.197	0.124	0.136	0.707	0.587	0.603	0.601	0.603
